Common to all, as to test: NCI tumour cell line growth inhibition, 48 h
For assay [1], the system named is SF-539 CNS.
In assay [2] the test system is NCI-H23 lung.
Assay [3] concerns COLO 205 colon.
For assay [4], the system named is K-562 leukemia.
For assay [5], the system named is OVCAR-3 ovarian.
The test system of assay [6] is A498 renal.
Assay [7] relates to HL-60(TB) leukemia.
The subject of assay [8] is UACC-62 melanoma.
Assay [9] concerns U251 CNS.
Assay [10] has as its system SNB-19 CNS.

“And” between values parts separate entries of the source, which are not always exact repeats. Equal entries are not always repeated.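 Step 1: Grow cells in 96-well plates. Step 2: Expose to compound for 48 hours at 5 concentrations. Step 3: Interpolate endpoints linearly; if unreached, use highest concentration. GI50 marks 50% less growth. TGI is the concentration that stops growth completely.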

For `CC(C)COC(=O)c1ccc2[nH]c(O)c(C=Nc3ccc(S(N)(=O)=O)cc3)c2c1`, the GI50 in assay [1] was 0.975 µM; in assay [2], 1.33 µM; in assay [3], 0.532 µM; in assay [4] it was 2.32 µM; in assay [5], 0.802 µM; in assay [6], 2.28 µM. In addition, the GI50 in [7] is 0.68 µM; in assay [8], 1.91 µM; in assay [9] it was 0.879 µM; in assay [10], 1.93 µM. Besides, the TGI in assay [1] was determined as 3.67 µM; in assay [2], 5.11 µM; in [3], 1.91 µM; in assay [4], 17.1 µM; in [5], 2.28 µM; in assay [6] it was 5.9 µM. The TGI in assay [7] is 2.38 µM; in assay [8], 6.08 µM; in assay [9], 4.13 µM; in assay [10], 13.7 µM.

Consider `COc1ccc(C2=CC(c3ccc(OC)c(OC)c3)c3c(c4ccccc4oc3=O)O2)cc1OC` (stereo not given), for which the GI50 in assay [1] was 1.02 µM; in assay [2], 4.91 µM; in [3], 2.04 µM; in assay [4], 1.02 µM; in assay [5], 0.313 µM; in assay [6], 0.892 µM. The GI50 was 2.32 µM in assay [7], 0.473 µM in [8], 3.19 µM in assay [9] and 1.99 µM in [10]. The TGI was 4.43 µM in assay [1]; above 100 µM in assay [2]; above 24.2 µM in [3]; above 100 µM in [4]; above 20.2 µM in [6]; above 100 µM in [8]. The TGI in [9] is above 100 µM; in assay [10] it was above 77.3 µM.

Take `CCC(=O)N/N=C(\C=C\c1cccc(O)c1)c1sc(Nc2ccc(C)cc2[N+](=O)[O-])nc1C`: the TGI in [1] was above 100 µM; in [2], 6.72 µM; in assay [3] it was above 100 µM; in assay [4] it was above 100 µM; in assay [5], above 100 µM; in assay [6], above 100 µM. Besides, the TGI in assay [7], in assay [8], in assay [9] and in assay [10] was above 100 µM in each case.

On to `O=C1C=CC(CC(=O)c2ccc3ccccc3c2)O1` (stereo not given), for which the TGI in assay [1] was 33.2 µM; in assay [2], 46.7 µM; in [3], 31.9 µM; in [4], above 100 µM; in [5] it was 41.6 µM; in [6], 46.1 µM. For the same compound, the TGI in assay [7] is 37.3 µM; in assay [8], 34.6 µM; in [9] it was 32.1 µM; in assay [10], 76.8 µM.

Consider `COc1ccc2nc(NC(=O)c3cccnc3Nc3cc(OC)c(OC)c(OC)c3)sc2c1`, for which the GI50 was 2.8 µM in [1]; 5.38 µM in [2]; 17.4 µM in [3]; 8.91 µM in assay [4]; 8.92 µM in [5]; 2.19 µM in assay [6]. Moreover, the GI50 in assay [7] is 32.3 µM; in [8], 8.45 µM; in assay [9], 7.1 µM; in [10], 15 µM. The TGI in assay [1] was 11.2 µM; in assay [2] it was 22.7 µM; in [3], 51.5 µM; in assay [4], above 100 µM; in [5] it was 21.5 µM; in assay [6] it was 7.42 µM. Further, the TGI was above 100 µM in assay [7], 24.6 µM in assay [8], 21.7 µM in [9] and 31.7 µM in assay [10].

In the case of `Nn1c(N=Nc2c(O)[nH]c3c(Cl)cc(Cl)cc23)n[nH]c1=S`, the TGI in assay [1], in assay [2], in assay [3], in assay [4], in assay [5] and in assay [6] was above 100 µM each time. The TGI in assay [7], in assay [8], in [9] and in assay [10] was above 100 µM in each case.

As for `Cc1cccc(Nc2cnc(N)nc2N)c1`, the TGI in assay [1], in assay [2], in [3], in assay [4], in [5] and in [6] was above 100 µM each time. For the same compound, the TGI in assay [7], in assay [8], in assay [9] and in assay [10] was above 100 µM throughout.

For the compound `O=C(NO)c1ccc(O)c(O)c1`, the TGI in assay [1] was above 100 µM; in assay [2], above 100 µM; in [3], above 100 µM; in assay [4], 93.8 µM; in [5] it was above 100 µM; in assay [6], above 100 µM. Besides, the TGI is 56 µM in assay [7], above 100 µM in assay [8], above 100 µM in assay [9] and above 100 µM in assay [10].

As to `O=C1NC(=O)C2C1N(Cc1ccccc1)C(=O)N2Cc1ccccc1` (stereo not given), the TGI in [1], in assay [2], in [3], in assay [4], in assay [5] and in assay [6] was above 100 µM in each case. The TGI in assay [7], in assay [8], in assay [9] and in assay [10] was above 100 µM in each case.

`CCC(Oc1ccc(OC)c2ccccc(=O)c12)C(=O)O` (stereo not given): the TGI in assay [1], in assay [2], in assay [3], in assay [4], in assay [5] and in [6] was above 100 µM throughout. Also, the TGI in assay [7], in assay [8], in assay [9] and in assay [10] was above 100 µM in each case.

As to `Cc1cccc(C(C)(C)C)c1NC(=O)CC1Sc2ccccc2NC1=O` (stereo not given), the TGI in assay [1] was above 100 µM; in assay [2] it was above 100 µM; in assay [3], 59.7 µM; in assay [4], 73.5 µM; in assay [5] it was above 100 µM; in assay [6], above 100 µM. Moreover, the TGI in assay [7] was 89.9 µM; in [8], above 100 µM; in [9], above 100 µM; in assay [10], above 100 µM.

Consider `Clc1nc(Cl)c2ncn(Cc3ccc(Cn4cnc5c(Cl)nc(Cl)nc54)cc3)c2n1`, for which the GI50 is 5.04 µM in assay [1]; 2.02 µM in [2]; above 100 µM in assay [3]; 0.661 µM in assay [4]; 8.68 µM in assay [5]; 7.48 µM in assay [6]. The GI50 was 0.0475 µM in assay [7], 12.5 µM in [8], 13.2 µM in assay [9] and 76.2 µM in assay [10]. Also, the TGI in assay [1] is 20.7 µM; in assay [2], 22.8 µM; in [3], above 100 µM; in assay [4], 14 µM; in assay [5], 25.6 µM; in assay [6] it was 50.2 µM. Besides, the TGI in assay [7] is 4.4 µM; in [8] it was 27.8 µM; in [9], 27.7 µM; in assay [10], above 100 µM.

As to `O=C(/C=C1/Nc2ccc([N+](=O)[O-])cc2NC1O)c1cccc([N+](=O)[O-])c1` (stereo not given), the TGI in assay [1] was 87.2 µM; in assay [2] it was above 100 µM; in [3], above 100 µM; in assay [4] it was above 100 µM; in [5], above 100 µM; in [6], above 100 µM. The TGI in assay [7], in [8], in assay [9] and in assay [10] was above 100 µM each time.

With `COC1=C2CC(C)CC(OC)C(O)C(C)/C=C(\C)C(OC(N)=O)C(OC)/C=C\C=C(/C)C(=O)NC(=C(/C=N/N3CCCCC3)C1=O)C2=O` (stereo not given), the TGI stood at 20.8 µM in assay [1]; 35.3 µM in assay [2]; 8.25 µM in assay [3]; 21.6 µM in assay [4]; 4.62 µM in assay [5]; 63.8 µM in assay [6]. Besides, the TGI in assay [7] amounted to 4.32 µM; in assay [8], 48.1 µM; in assay [9], 20.8 µM; in assay [10], 41.9 µM.

With `COc1cc(Cl)cc(-c2nn(-c3cccc(NC(=O)Nc4ccc(Cl)c(C(F)(F)F)c4)c3)cc2-c2ccncc2)c1`, the GI50 in assay [1] is 1.5 µM; in assay [2] it was 1.36 µM; in assay [3], 1.53 µM; in assay [4], 0.537 µM; in assay [5] it was 0.451 µM; in assay [6] it was 2.68 µM. In addition, the GI50 was 1.68 µM in assay [7], 1.27 µM in assay [8], 0.729 µM in assay [9] and 2.93 µM in [10]. Moreover, the TGI was 3.35 µM in assay [1]; 6.23 µM in [2]; 3.11 µM in assay [3]; 10.1 µM in assay [4]; 2.66 µM in [5]; 14.4 µM in assay [6]. Moreover, the TGI in assay [7] worked out at 5.53 µM; in assay [8], 3.54 µM; in [9] it was 2.11 µM; in assay [10] it was 17.6 µM.

On to `CCn1c2ccccc2c2cc(C(O)c3cccc4ncccc34)ccc21` (stereo not given), for which the GI50 in assay [1] is 0.0346 µM; in assay [2] it was 0.0958 µM; in [3] it was 0.0427 µM; in assay [4], 0.0389 µM; in assay [5] it was 0.0422 µM; in assay [6], 0.0251 µM. In addition, the GI50 in [7] was 0.0279 µM; in assay [8] it was 0.0443 µM; in [9], 0.0411 µM; in assay [10] it was 0.0437 µM. Further, the TGI in [1] worked out at 0.224 µM; in [2], 19.5 µM; in assay [3] it was 0.251 µM; in assay [4], 10.9 µM; in assay [5] it was 39.9 µM; in [6] it was 0.267 µM. Moreover, the TGI in [7] amounted to 0.0787 µM; in assay [8], 2.32 µM; in assay [9], 3.56 µM; in assay [10], 34.7 µM.

Consider `Cc1cccc2nc3cccc(C(=O)NCCN(C)C)c3nc12`, for which the TGI was 1.21 µM in assay [1]; 3.47 µM in [2]; 3.14 µM in [3]; 10.9 µM in assay [4]; 6.45 µM in assay [5]; 1.35 µM in assay [6]. Also, the TGI is 12 µM in [7], 2.42 µM in assay [8], 4.61 µM in assay [9] and 5.27 µM in [10].

For `CC1=CC(=O)N(c2c(C)cccc2Cl)C(C)N1` (stereo not given), the TGI in assay [1], in [2], in assay [3], in assay [4], in assay [5] and in assay [6] was above 100 µM each time. Also, the TGI in assay [7], in assay [8], in assay [9] and in assay [10] was above 100 µM each time.

Turning to `CC(=O)Oc1ccc(C(c2ccc(OC(C)=O)cc2)c2ccccn2)cc1`, the TGI is above 100 µM in assay [1]; above 100 µM in assay [2]; 36.5 µM and > 69.4 µM in [3]; above 100 µM in assay [4]; 98.9 µM and 23.2 µM in [5]; above 100 µM in [6]. Moreover, the TGI is 70 µM and 69.7 µM in assay [7]; above 100 µM in assay [8]; above 100 µM in [9]; above 100 µM in assay [10]. Besides, the GI50 was 5.08 µM in assay [2]; 0.463 µM in [3]; 39.3 µM in assay [4]; 9.94 µM in assay [5]; 8.9 µM in assay [6]; 25.4 µM in assay [7]. For the same compound, the GI50 in assay [8] was 21.2 µM.

On to `O=C(O)CCSC(=O)Nc1ccc(N=Nc2ccccc2)cc1`, for which the TGI in [1], in [2], in assay [3], in assay [4], in assay [5] and in [6] was above 100 µM throughout. Moreover, the TGI in [7], in [8], in assay [9] and in [10] was above 100 µM each time.

Regarding `CN1CC(=O)N(C)c2nc[nH]c2C1=O`, the TGI in assay [1], in assay [2], in [3], in [4], in assay [5] and in [6] was above 100 µM in each case. In addition, the TGI in assay [7], in assay [8], in [9] and in assay [10] was above 100 µM throughout.

Source of the values: PubChem BioAssay (NCI).
